Measured values from PMC7819857, “Identification of Inhibitors of Integrin Cytoplasmic Domain Interactions With Syk” (Frontiers in Immunology, 2021).

Legend:
[1] = molecular target: T1, integrin β2 cytoplasmic domain : GST-Syk(6-370) (Homo sapiens, UniProt P43405); test: AlphaScreen of integrin β2 cytoplasmic domain binding to Syk; settings: read-out: antagonist activity against β2 (value without measure name), AlphaScreen
T1 construct: made in house; host or cells: E. coli BL21(DE3)
Method: The following HTS assay was developed to identify antagonists of the interaction between the integrin β3 cytoplasmic domain and the non-receptor tyrosine kinase Syk. […] ( Figure 1E ). Background signals in this assay were determined by omitting the integrin β3 peptide. Specific assay conditions are described in Table 1 . […] Then, either dimethyl sulfoxide control or compound was added, followed by biotinylated β3 peptide, and avidin-coated AlphaScreen donor beads. After a 4-h incubation period at room temperature (while protected from light), assays plates were read on an Infinite M1000 (Tecan) multiplate reader (Ex. 680/30; Em. 570/100).
Figure 4 Ceftazidime inhibition of integrin signaling. (A) Dose-response curves comparing ceftazidime antagonist activity against integrin β1A, β2, and β3 cytoplasmic domains binding to Syk as measured in AlphaScreen assays. […] Data are expressed as mean fluorescence (Fl520) ± the range from duplicate determinations. One of three experiments is shown. (B) Flow cytometric analysis of integrin α4β1, β2 subunit, αVβ3, and FcγRI (CD64) on THP-1 cells. Isotype control staining is shown as light gray histograms. Specific integrin staining is shown as darker gray histograms. […] One representative blot is shown (top), along with quantification of three separate experiments normalized to maximum Syk phosphorylation (bottom). Results are expressed as the mean ± SEM.

[2] = system: Syk phosphorylation in THP-1 cells; test: Integrin α4β1-induced phosphorylation of Syk in THP-1 cells plated on CS-1; format: cell-based, human
Method: Compound loading of cells was facilitated by glycerol shock ([32], [33]). Methods were first optimized with the cell-impermeable fluorophore Sulfo-Cy5 (see Supplemental Figure S5 ). For analysis of compound inhibition of integrin signaling, 3 × 10^6 THP-1 cells were incubated in 200 ul serum-free RPMI containing 15% glycerol and ceftazidime (at indicated concentrations) for 1 h at 20°C. RPMI (3 ml, room temperature) containing ceftazidime (at indicated concentrations) was added to the cells to dilute the glycerol, and the cells were further incubated for 10 min (room temperature). Cells were then plated onto CS-1-BSA-coated plates for 15 min at 37°C, lysed in RIPA buffer (1% Triton X-100, 50 mM Tris-HCl pH 7.2, 150 mM NaCl, 0.25% NaDOC, 0.05% SDS, 2 mM PMSF, 1 mM NaF, 1 mM Na3VO4, and protease inhibitor cocktail) (AEBSF, Aprotinin, E-64, Bestatin, Leupeptin and Pepstatin; VWR Cat#97063-010), and the lysates were subjected to Western blot as described below.
Syk phosphorylation assays were performed by immobilizing vascular cell adhesion molecule-1 (VCAM)-1 (3 ug/ml), CS-1-BSA (10 ug/ml), or specific monoclonal antibodies (anti-FcγRI mAb 276426, anti-α4β1 mAb 19H8, anti-β2 mAb 76C3, anti-αvβ3 mAb LM609 all at 5 ug/ml) overnight at 4°C in Tris-HCl pH 7.5, 150 mM NaCl, in 6-well plates (non-tissue culture treated, Becton Dickenson, cat# BD351146). […] After electrophoresis, proteins were transferred to nitrocellulose for 1 h 100 V room temperature, blocked in 5% non-fat milk in TBS-T, and probed with the indicated primary antibody at 1:1,000 overnight at 4°C, followed by species-appropriate HRP secondary antibody (Southern Biotech) at 1:5,000 (30 min at room temperature), and detected using Pierce West Pico (Thermo Scientific cat# 34580). […]
Figure 4 Ceftazidime inhibition of integrin signaling. (A) Dose-response curves comparing ceftazidime antagonist activity against integrin β1A, β2, and β3 cytoplasmic domains binding to Syk as measured in AlphaScreen assays. […] Data are expressed as mean fluorescence (Fl520) ± the range from duplicate determinations. […]

CC(C)(O/N=C(\C(=O)N[C@@H]1C(=O)N2C(C(=O)[O-])=C(C[n+]3ccccc3)CS[C@H]12)c1csc(N)n1)C(=O)O [ceftazidime]
IC50 [1]: 1530 ± 210 nM
integrin α4β1 induced phosphorylation of Syk ([2]; 100 µM loaded by glycerol shock, plated on CS-1, immunoprecipitation and western blot): inhibited
α4β1-induced phosphorylation of Syk (pY352) ([2]; ceftazidime loaded by glycerol shock, indicated doses, cells plated on CS-1): inhibited
α4β1 signaling through Syk ([2]; drug simply added to THP-1 cells, no glycerol loading): negative
